Molecules are shown by their SMILES. pIC50: −log10 of the molar value. Active and inactive are the calls of the source. The rule behind the calls is not given here.

Data set [1] relates to Gallus gallus. The data set is described as follows: Vascular disruptive activity in 6 days post fertilized chicken egg chorioallantoic/vitelline membrane at 10 nmol administered topically measured up to 24 hrs by stereo-microscopic analysis. The class given is functional.
The subject of data set [2] is Gallus gallus. The data set is described as follows: Vascular disruptive activity in 6 days post fertilized chicken egg assessed as area covered by blood vessels at 10 nmol administered topically measured after 6 hrs by light microscopic analysis relative to control. The class given is functional.
Data set [3] concerns Gallus gallus. Description: Vascular disruptive activity in 6 days post fertilized chicken egg chorioallantoic/vitelline membrane assessed as disruption of capillary reticulation at 10 nmol administered topically measured after 6 hrs by stereo-microscopic analysis. It is filed as functional.
In data set [4] the test system is Gallus gallus. Description: Vascular disruptive activity in 6 days post fertilized chicken egg chorioallantoic/vitelline membrane assessed as degradation of blood vessels at 10 nmol administered topically measured after 6 hrs by stereo-microscopic analysis. It is filed as functional.
The test system of data set [5] is 518A2. Description: Cytotoxicity against human 518A2 cells after 72 hrs by MTT assay. It is filed as functional, cell-based. On the technique in general: Tetrazolium dyes change colour on reduction, which living cells bring about.
Data set [6] has as its system HT-29. Description: Cytotoxicity against human HT-29 cells after 72 hrs by MTT assay. The class given is functional, cell-based.
Another data set concerns HCT-116. Description: Cytotoxicity against human HCT116 cells after 72 hrs by MTT assay. The class given is functional, cell-based.
The subject of a further data set is DLD-1. Description: Cytotoxicity against human DLD1 cells after 72 hrs by MTT assay. The class given is functional, cell-based.
The next data set concerns PANC-1. The data set is described as follows: Cytotoxicity against human PANC1 cells after 72 hrs by MTT assay. The class given is functional, cell-based.
The nature of data set [7]: (§1) Cytotoxicity against human KB-V1/Vbl cells after 72 hrs by MTT assay. The class given is functional, cell-based.
The test system of the next data set is KB-V1/Vbl. The data set is described as §1. The class given is functional, cell-based.
Data set [8] in a line: (§2) Cytotoxicity against human MCF7/Topo cells after 72 hrs by MTT assay. It is filed as functional, cell-based.
For another data set, the system named is MCF7/Topo. The description is as §2. It is filed as functional, cell-based.
Data set [9] can be described thus: (§3) Cytotoxicity against human U87 cells after 72 hrs by MTT assay. It is filed as functional, cell-based, U-87MG ATCC. Conditions: U-87 MG.
Data set [10] concerns U-87MG ATCC. Described as §3. The class given is functional, cell-based.
Data set [11] is described as follows: Cytotoxicity against HDFa after 72 hrs by MTT assay. The class given is cell-based. Particulars: Homo sapiens.
Data set [12] deals with HT-29. Description: Cell cycle arrest in human HT-29 cells assessed as accumulation at sub-G1 phase at 1 uM after 24 hrs by propidium iodide staining based flow cytometric analysis (reference value: 0.9 +/- 0.1%). The class given is functional. A general note: A flow cytometer gives signals particle by particle.
Data set [13] relates to HT-29. Description: Cell cycle arrest in human HT-29 cells assessed as accumulation at sub-G1 phase at 2.5 uM after 24 hrs by propidium iodide staining based flow cytometric analysis (reference value: 0.9 +/- 0.1%). The class given is functional.
Data set [14] relates to HT-29. The data set is described as follows: Cell cycle arrest in human HT-29 cells assessed as accumulation at sub-G1 phase at 5 uM after 24 hrs by propidium iodide staining based flow cytometric analysis (reference value: 0.9 +/- 0.1%). The class given is functional.
Data set [15] has as its system HT-29. Description: Cell cycle arrest in human HT-29 cells assessed as accumulation at G1 phase at 1 uM after 24 hrs by propidium iodide staining based flow cytometric analysis (reference value: 68 +/- 0.9%). It is filed as functional.
Data set [16] deals with HT-29. The data set is described as follows: Cell cycle arrest in human HT-29 cells assessed as accumulation at G1 phase at 2.5 uM after 24 hrs by propidium iodide staining based flow cytometric analysis (reference value: 68 +/- 0.9%). It is filed as functional.
For data set [17], the system named is HT-29. The data set is described as follows: Cell cycle arrest in human HT-29 cells assessed as accumulation at G1 phase at 5 uM after 24 hrs by propidium iodide staining based flow cytometric analysis (reference value: 68 +/- 0.9%). The class given is functional.
Data set [18] concerns HT-29. Description: Cell cycle arrest in human HT-29 cells assessed as accumulation at S phase at 1 uM after 24 hrs by propidium iodide staining based flow cytometric analysis (reference value: 15.6 +/- 0.3%). The class given is functional.
The subject of data set [19] is HT-29. The data set is described as follows: Cell cycle arrest in human HT-29 cells assessed as accumulation at S phase at 2.5 uM after 24 hrs by propidium iodide staining based flow cytometric analysis (reference value: 15.6 +/- 0.3%). It is filed as functional.
In data set [20] the test system is HT-29. The data set is described as follows: Cell cycle arrest in human HT-29 cells assessed as accumulation at S phase at 5 uM after 24 hrs by propidium iodide staining based flow cytometric analysis (reference value: 15.6 +/- 0.3%). It is filed as functional.
For data set [21], the system named is HT-29. Description: Cell cycle arrest in human HT-29 cells assessed as accumulation at G2/M phase at 1 uM after 24 hrs by propidium iodide staining based flow cytometric analysis (reference value: 15.5 +/- 0.5%). The class given is functional.
In data set [22] the test system is HT-29. Description: Cell cycle arrest in human HT-29 cells assessed as accumulation at G2/M phase at 2.5 uM after 24 hrs by propidium iodide staining based flow cytometric analysis (reference value: 15.5 +/- 0.5%). It is filed as functional.
For data set [23], the system named is HT-29. The data set is described as follows: Cell cycle arrest in human HT-29 cells assessed as accumulation at G2/M phase at 5 uM after 24 hrs by propidium iodide staining based flow cytometric analysis (reference value: 15.5 +/- 0.5%). The class given is functional.
The subject of data set [24] is HT-29. The data set is described as follows: Upregulation of cyclin B1 expression in human HT-29 cells at 1 to 2.5 uM after 24 hrs by Western blot analysis. It is filed as functional, cell-based. (In general: Immunoblotting shows a protein as a band on a membrane.)
The species entered for a further data set is Homo sapiens. Description: Inhibition of NF-kappaB in human 518A2 cells assessed as reduction in p65 subunit expression at 1 to 2 uM after 24 hrs by Western blot analysis. It is filed as cell-based.
Data set [25] concerns 518A2. The data set is described as follows: Anti-migratory activity in human 518A2 cells assessed as wound closure at 250 nM after 24 hrs by light microscopic analysis. The class given is functional, cell-based.
For data set [26], the system named is 518A2. Description: Anti-migratory activity in human 518A2 cells assessed as wound closure at 250 nM after 48 hrs by light microscopic analysis (reference value: 100%). It is filed as functional.
The subject of data set [27] is U-87MG ATCC. The data set is described as follows: Anti-vasculogenic activity in human U87 cells assessed as reduction in formation of cord-like structures at 2.5 uM after 24 hrs by matrigel based light microscopic analysis. The class given is functional, cell-based.
The test system of data set [28] is U-87MG ATCC. The data set is described as follows: Anti-vasculogenic activity in human U87 cells assessed as reduction in formation of blood-vessel like tubular structures at 2.5 uM after 24 hrs by matrigel based light microscopic analysis. It is filed as functional, cell-based.
Data set [29] is described as follows: Cytotoxicity against human U87 cells assessed as cell viability at 10 nmol after 24 hrs by MTT assay relative to control. The class given is cell-based, U-87MG ATCC. Particulars: read-out: Activity.

As for `COc1cc(/C=C/C(=O)CC(=O)/C=C/c2ccc(O)c(OC)c2)ccc1O`, the outcome in the data set with Gallus gallus [1] and with Gallus gallus [2] was inactive.
For orientation: pIC50 means −log10 of the IC50, conventionally taken in molar units. Low readings indicate a high IC50, high ones a low IC50. On to `CN1C/C(=C\c2c(F)cc(F)cc2F)C(=O)/C(=C/c2c(F)cc(F)cc2F)C1`, for which the result with Gallus gallus [3], with Gallus gallus [4], in the data set with HT-29 [24], in the data set on 518A2 [25] and in the data set with 518A2 [26] was Active. Moreover, the Activity entry in the data set with 518A2 [5], in the data set with HT-29 [6], with HCT-116, in the data set with DLD-1, in the data set on PANC-1 and with KB-V1/Vbl was “Dose-dependent effect” throughout. For the same molecule, the Activity result with MCF7/Topo was “Dose-dependent effect”; in the data set with U-87MG ATCC [10] it was “Dose-dependent effect”; in the data set with HT-29 [12], 5%; with HT-29 [13], 30.1%; with HT-29 [14] it was 32.7%; in the data set on HT-29 [15], 58.9%. The Activity in the data set on HT-29 [16] was found to be 25.5%; in the data set with HT-29 [17], 22.2%; in the data set on HT-29 [18] it was 18.3%; in the data set on HT-29 [19], 7.4%; in the data set with HT-29 [20], 8.1%; in the data set on HT-29 [21], 17.8%. Also, the Activity with HT-29 [22] came out at 37%; in the data set on HT-29 [23] it was 36.9%; with Gallus gallus [2], 40%. Moreover, the pIC50 was below 5.00 in the data set on 518A2 [5] (518A2, 72 h); below 5.00 with HT-29 [6] (HT-29, 72 h); below 5.00 with HCT-116 (HCT-116, 72 h); below 5.00 in the data set with DLD-1 (DLD-1, 72 h); below 5.00 in the data set on PANC-1 (PANC-1, 72 h); 6.09 in [7]. Moreover, the negative-log IC50 (pIC50) is 5.68 in data set [8], below 5.00 in data set [9] and below 5.00 in [11]. Further, the inhibition result in the data set filed under Homo sapiens is “Active”. In addition, the result in the data set with U-87MG ATCC [27] and in the data set with U-87MG ATCC [28] was inactive. Besides, in data set [29], the viability at 24 h, 10 nmol was above 85%.
